According to patent publication US4243678A, “Acylhydrocarbylaminoalkanoic acids, compositions and uses” (Byk Gulden Lomberg Chemische Fabrik GmbH, priority 1977, dated 1981):
Read-outs that look alike come from different tables or passages of the source.

Assays:
[1] = Influence on pancreatic secretion of the narcotized rat; assay type: in vivo, rat (male Sprague-Dawley); conditions: in vivo, LD50 mouse i.p. / ED50 rat i.d.
From the text: (§1) Male Sprague-Dawley rats (body weight from 250 to 300 g) are narcotized with 1.2 g/kg urethane i.m. Then the abdominal cavity is opened medially, the bile duct is ligatured shortly above the place where it leads into the duodenum and also near to the hepatic duct, and both sections are catheterized towards the liver.
(§2) As in the rat all the pancreatic ducts lead out into the central section of the bile duct; it is possible in this way to discharge the pancreatic secretion separately from the distal (ligatured) section and the bile separately from the proximal section of the bile duct.
(§3) The quantities of pancreatic juice and bile juice obtained are measured at intervals of 30 minutes over a period from 2 hours before to 3 hours after the intraduodenal (V. jugularis externa) administration of the compounds to be tested (quantity of liquid administered 5 ml/kg).
(§4) The body temperature of the animals is maintained at 36° to 38° C. by means of electric blankets and radiation; the temperature is monitored rectally.
(§5) The liquid volumes of the 30-minute fractions after the administration of the substance are related in each case to the quantity of bile or pancreatic juice secreted prior to the application of the substance (=100%, mean of the last two measurements). The maximum percentage increase in the pancreatic or bile secretion is represented in dependence upon dose, and from this the ED50 is determined by interpolation.

pancreatic secretion = test: as above; assay type: in vivo, rat (male Sprague-Dawley); conditions: 0.5 h, narcotized rat, i.d., liquid volume
From the text: as §1, §2, §3, §4, §5

[2] = Antihepatotoxic effect: duration of hexobarbital sleep of the rat after liver damage by CCl4; conditions: rat, in vivo
Experimental: (§6) The compounds to be tested are administered 1 hour prior to the administration of CCl4 orally in a liquid volume of 10 ml/kg.
(§7) The antihepatotoxic effect of the compounds to be tested (sodium salts in aqueous solution) is determined by the reduction of the prolongation of sleeping period caused by the CCl4 liver cell damage in the groups treated, as compared with the prolongation of the sleeping period of the CCl4 control group (=100%). […]

liver damage by CCl4 = test: as above; conditions: Rattus norvegicus, po; for ED25: read-out: ED25 antihepatotoxic effect (shortens hexobarbital narcosis by 25%); for ED50: read-out: ED50 antihepatotoxic effect (shortens hexobarbital narcosis by 50%)
Experimental: as §6, §7

[3] = Determination of toxicity (lethal action on the mouse after intraperitoneal application); assay type: in vivo; conditions: in vivo, ip
Experimental: The toxicity investigations are carried out on female NMRI mice (body weight 22 to 26 g). The animals (5 animals per dose) are given food and water ad lib. Different doses of the substances are administered intraperitoneally. The duration of observation is 14 days. The LD50, i.e. the dose at which 50% of the animals die, is determined graphically from the dose/effect curve.

[4] = Antiulcerogenic (stomach-protective) action, pylorus ligature and acetylsalicylic acid; assay type: in vivo, rat (female); conditions: in vivo, LD50 mouse i.p. / ED50 rat i.d.
Experimental: (§8) The ulcer provocation is carried out on rats which have been made to fast for 24 hours (female, 180 to 200 g) by ligature of the pylorus (under ether narcosis) and the oral application of 100 mg/10 ml/kg acetylsalicylic acid. The administration of the substances was carried out intraduodenally (2.5 ml/kg) immediately after the ligature of the pylorus. The closure of the wound was carried out by means of Michel clamps. 4 hours after this, the animals were autopsied (while inebriated with ether) by dislocation of the atlas, and the stomach was resected. The stomach, opened longitudinally, is fixed on a cork board and, using a stereomicroscope with an enlargement of 10×, the number and size (=diameter) of any ulcers present were determined. The product of the degree of severity (according to the following scale of points) and the number of ulcers was used as the individual ulcer index.
(§9) As a measure of antiulcerogenic effect the reduction in the mean ulcer index of each treated group, as compared with that of the control group (=100%), was used.

stomach ulcer = test: as above; assay type: in vivo, rat (female); conditions: 4 h, rat, intraduodenally, read-out: ED50 antiulcerogenic action (dose which reduces the mean ulcer index by 50%)
Experimental: as §8, §9

[5] = tested on: glucose formation from lactate and pyruvate in isolated perfused liver; test: Inhibition of the formation of glucose from lactate and pyruvate in the isolated perfused rat liver; set-up: species or system rat (male Sprague-Dawley); conditions: for Glucose formation, % change: isolated perfused liver of fasting rats; for ED50 inhibition of formation of glucose from lactate and pyruvate: from 4 concentrations, 0.02 to 1.00 mmol/liter
Experimental: For this purpose young male Sprague-Dawley rats (160 to 200 g) are used. The rats are kept in cages of up to 5 animals in a temperature-controlled room (23° C.) with a fixed day/night rhythm (12/12 hours).
Food is withheld from the animals for from 20 to 22 hours prior to the operation. They are allowed to take water ad lib. The operation and the perfusion of the liver are carried out using the technique of R. Scholz et al. [Eur. J. Biochem. 38 (1973) 64 to 72]. The perfusion liquid used is Krebs-Henseleit bicarbonate buffer (pH 7.4), which is saturated with an oxygen/carbon dioxide mixture (95/5) and contains 1.6 mmol/liter of L-lactate and 0.2 mmol/liter of pyruvate. The perfusion liquid is pumped into the liver via a cannula inserted into the portal vein. The effluent perfusion liquid is collected via a cannula inserted into the Vena cava. The liver is perfused for about 2 hours. The test compounds are infused for 16 minutes each from the 32nd to the […] after the perfusion in increasing concentrations (0.02 to 1.00 mmol/liter).
Samples of the effluent perfusion liquid are collected at one-minute intervals and analyzed for glucose, lactate and pyruvate (using standard enzymatic methods). The percentages shown in Table VIII relate to the condition occurring before and after the administration of the compounds, the changes caused solely by lactate and pyruvate being set as being equal to 100%.

[6] = Table VII, read-out: TQ [LD50/ED50], pancreatic secretion
[7] = 30 min fraction, Table VII, read-out: ED50 pancreatic secretion (dose which brings about an increase in pancreatic secretion of a maximum of 50%)
[8] = TQ LD50/ED25, antihepatotoxic effect, LD50 mouse i.p. / ED25 rat p.o., Table V
[9] = TQ LD50/ED50, antihepatotoxic effect, LD50 mouse i.p. / ED50 rat p.o., Table V
[10] = Table IV, read-out: TQ (LD50/ED50), antiulcerogenic action
[11] = 0.2 mmole/liter in the perfusate, Table VIII
[12] = Table X, read-out: TQ LD50/ED50, pancreatic secretion
[13] = 30 minute fraction, Table X, read-out: ED50 pancreatic secretion (dose which brings about an increase in pancreatic secretion by a maximum of 50%)
[14] = TQ LD50/ED25, antihepatotoxic effect, LD50 mouse i.p. / ED25 rat p.o., Table XI
[15] = Table IX, read-out: TQ LD50/ED50, antiulcerogenic action

SMILES | selectivity ratio [1, 6] | ED50 (pancreatic secretion; [7]) | selectivity ratio [2, 8] | selectivity ratio [2, 9] | ED25 (liver damage by CCl4) | ED50 (liver damage by CCl4) | LD50 at 336 h ([3]; mouse, Table IV) | selectivity ratio [4, 10] | ED50 (stomach ulcer; Table IV) | selectivity ratio [1, 12] | ED50 (pancreatic secretion; [13]) | LD50 at 336 h ([3]; mouse i.p., Table IX) | selectivity ratio [4, 15] | ED50 (stomach ulcer; Table IX) | other results
O=C(O)CCCN(C(=O)c1ccc(Cl)cc1)c1ccc(-c2ccccc2)cc1 [Serial No. 23, 4-[p-chloro-N-(biphenyl-4-yl)benzamido]butyric acid] | 120 | 1 mg/kg | 8 | 5.5 | 15 mg/kg | 22 mg/kg | 120 mg/kg | ~8 | ~15 mg/kg |  |  |  |  |  | 
O=C(O)CCCCCN(C(=O)c1ccc(Cl)cc1)c1ccccc1-c1ccccc1 [Serial No. 24, 6-[p-chloro-N-(biphenyl-2-yl)benzamido]caproic acid] |  |  | ~14.4 | 9.3 | ~9 mg/kg | 14 mg/kg | 130 mg/kg | ~3.3 | ~40 mg/kg |  |  |  |  |  | Glucose formation, % change [5, 11]: -99%; ED50 inhibition of formation of glucose from lactate and pyruvate ([5]; Table VIII): 23 µg/mL
O=C(O)CCCN(C(=O)c1cccc(C(F)(F)F)c1)c1ccccc1-c1ccccc1 [Serial No. 25, 4-[m-trifluoromethyl-N-(biphenyl-2-yl)benzamido]butyric acid] | 110 | 1 mg/kg | 11 | 3.7 | 10 mg/kg | 30 mg/kg | 110 mg/kg | 11 | 10 mg/kg |  |  |  |  |  | Glucose formation, % change [5, 11]: -77%; ED50 inhibition of formation of glucose from lactate and pyruvate ([5]; Table VIII): 34 µg/mL
O=C(O)CCCN(C(=O)c1ccc(F)cc1)c1ccccc1-c1ccccc1 [Serial No. 26, 4-[p-fluoro-N-(biphenyl-2-yl)benzamido]butyric acid] | 84 | 2.5 mg/kg | 131 | 75 | 1.6 mg/kg | 2.8 mg/kg | 210 mg/kg | ~3.8 | ~55 mg/kg |  |  |  |  |  | Glucose formation, % change [5, 11]: -51%; ED50 inhibition of formation of glucose from lactate and pyruvate ([5]; Table VIII): 76 µg/mL
O=C(O)CCCN(C(=O)c1ccc(Cl)cc1)c1ccccc1-c1ccccc1 [Serial No. 31, 4-[p-chloro-N-(biphenyl-2-yl)benzamido]butyric acid] | 180 | 1 mg/kg | > 180 | 51.4 | < 1 mg/kg | 3.5 mg/kg | 180 mg/kg | 5.1 | 35 mg/kg |  |  |  |  |  | Glucose formation, % change [5, 11]: -79%; ED50 inhibition of formation of glucose from lactate and pyruvate ([5]; Table VIII): 43 µg/mL
O=C(O)CCCCN(C(=O)c1ccccc1O)c1ccccc1-c1ccccc1 [Serial No. 32, 5-[o-hydroxy-N-(biphenyl-2-yl)benzamido]valeric acid] |  |  |  |  |  |  | > 200 mg/kg | > 20 | < 10 mg/kg |  |  |  |  |  | 
COc1ccc(N(CCCC(=O)O)C(=O)c2ccc(Cl)cc2)cc1-c1ccccc1 [Serial No. 35, 4-[p-chloro-N-(6-methoxybiphenyl-3-yl)benzamido]butyric acid] | 80 | 1.5 mg/kg |  |  |  |  | 120 mg/kg | > 12 | < 10 mg/kg |  |  |  |  |  | 
O=C(O)CCCN(C(=O)c1ccc(Cl)cc1)c1cccc2ccccc12 [Serial No. 38, 4-{p-chloro-[N(α-naphthyl)]benzamido}butyric acid] |  |  |  |  | ~5 mg/kg | 40 mg/kg |  |  |  | 56 | 2.5 mg/kg |  |  |  | selectivity ratio [2, 14]: ~28; selectivity ratio ([2]; TQ LD50/ED50, antihepatotoxic effect, LD50 mouse i.p. / ED50 rat p.o., Table XI): 3.5; LD50 at 336 h ([3]; mouse i.p., Table X): 140 mg/kg; Glucose formation, % change ([5]; 0.2 mmol/liter in the perfusate, Table XIII): -48%; ED50 inhibition of formation of glucose from lactate and pyruvate ([5]; Table XIII): 81 µg/mL
CCOc1ccc(N(CCCC(=O)O)C(=O)c2ccc(Cl)cc2)c2ccccc12 [Serial No. 43, 4-{p-chloro-[N-(4-ethoxy-1-naphthyl)]benzamido}butyric acid] |  |  |  |  |  |  |  |  |  | 100 | 0.7 mg/kg | 70 mg/kg | 7 | 10 mg/kg | 
CC(CCC(=O)O)N(C(=O)c1ccc(Cl)cc1)c1cccc2ccccc12 (stereo not drawn) [Serial No. 45, 4-{p-chloro-[N-(α-naphthyl)]benzamido}valeric acid] |  |  |  |  | ~15 mg/kg |  |  |  |  | ~180 | ~1 mg/kg | 180 mg/kg | > 18 | < 10 mg/kg | selectivity ratio [2, 14]: ~12
CC1(C)[C@@H](OC(=O)CCC(=O)O)CC[C@]2(C)[C@H]3C(=O)C=C4[C@@H]5C[C@@](C)(C(=O)O)CC[C@]5(C)CC[C@@]4(C)[C@]3(C)CC[C@@H]12 [compound 19] |  |  |  |  |  |  | 120 mg/kg | 2.4 | 50 mg/kg |  |  |  |  |  | 
CC(C)C(=O)N(CCCCC(=O)O)c1cccc2ccccc12 [compound 51] |  |  |  |  |  |  |  |  |  |  |  | > 200 mg/kg | ~20 | < 10 mg/kg | 
CCC(=O)N(CCCC(=O)O)C1CCCc2cc(OC)ccc21 (centres unmarked) [compound 52] |  |  |  |  |  |  |  |  |  | > 200 | < 1 mg/kg | > 200 mg/kg | > 20 | < 10 mg/kg | 
O=C(O)CCCN(C(=O)c1ccc(Cl)c(Cl)c1)c1ccc2c(c1)CCC2 [compound 53] |  |  |  |  | 10 mg/kg |  |  |  |  | > 180 | < 1 mg/kg | 180 mg/kg | > 18 | < 10 mg/kg | selectivity ratio [2, 14]: 18
O=C(O)CCCCN(C(=O)c1ccc(Cl)cc1)c1ccc2c(c1)CCC2 [compound 54] |  |  |  |  |  |  |  |  |  |  |  | 160 mg/kg | ≤ 16 | ≥ 10 mg/kg | 
